According to patent US20260327274A1, “PROTEIN HYDROLYSATES OF AZUKI BEANS AND COSMETIC USES THEREOF” (LUBRIZOL ADVANCED MATERIALS, INC., priority 2022, published 2026):
Ends that are not written are not given here.

What was measured:
[1] = DPPH inhibition by synthesized peptides identified in the hydrolysate; type: biochemical; conditions: for DPPH inhibition (%): synthesized peptide, test concentration not given; for Ability to inhibit DPPH / antioxidant potential (in words): synthesized peptides, F′2 subfraction
Description: (§1) Twelve different batches of purified hydrolysate obtained as described from Examples 1 to 3 are analyzed to determine the dry weight, protein content and antioxidant activity. • Dry weight is determined by weight difference after drying at 110° C. • Protein content is determined by using a BCA Assay kit. • Antioxidant activity is determined by DPPH (2,2-Diphenyl-1-Picrylhydrazyl) assay. • Briefly, 50 μL of 100 µM DPPH in EtOH is mixed with 50 μL of purified hydrolysate and incubated in the dark at 37° C. for 20 min and absorbance measured at 517 nm.
The purified extract according to Example 3 is further fractionated by using semi-preparative high-performance liquid chromatography (HPLC) and antioxidant activity assayed by DPPH for identifying the active fraction or peptides.
Collected tubes are analyzed by analytical HPLC at 3.0 mg/ml using a Cortecs C18+column (4.6×50 mm; 2.7 μm; Waters®) at a flow of 1.6 ml/min using the following gradient composition: isocratic of 0% B in 2 min, 0 to 30% of B in 5 min, and 30 to 75% of B in 5 min, monitoring absorbance of eluting peaks at 220 nm. Different fractions are obtained from the purified hydrolysate and lyophilized for further analysis and separation. Fractions are reconstituted in water and their antioxidant activity is determined by measuring the percentage of DPPH inhibition using the methodology described above.
To identify peptide sequences, the Proteome Discoverer 1.4.0.288 program (Thermo) with MASCOT 2.5 is used. The identified peptides are individually synthesized by applying standard solid phase peptide synthesis, using Fmoc/tBu chemistry protocols. As starting resin, CTC-PS or HO-Trt-Chem Matrix® resin is used. In the latter case, initial resin chlorination took place by overnight reaction with […] in dry THF. The first amino acid is introduced as a solution in DMF in presence of DIEA as base, followed by capping of the resin with MeOH. The resin is washed with DMF, prior to removal of Fmoc group by treatment with a 20% solution of piperidine in DMF, followed by washings in the same solvent. Subsequent residues are incorporated in DMF employing DIPCDI and Oxyma as coupling reagents. After verification of reaction completion using ninhydrin test, the solvent is filtrated away by suction. After this, the resin is washed with DMF and the Fmoc-deprotection step is repeated as abovementioned or in 2% DBU in DMF. Coupling-deprotection cycles are repeated for introduction of the remaining amino acids, with increasing Fmoc removal treatment times from the 6th residue. Oxyma (0.5M) is introduced in the cocktail whenever Asp residue is already incorporated into the growing peptide chain.
The peptidyl resin is washed and dried using DMF, DCM and diethyl ether and finally left under vacuum overnight to get rid of solvent traces. Cleavage of the crude product from the solid support and removal of the side-chain protecting groups is achieved by acidolysis using TFA and 5% water as scavenger. The peptide is precipitated out of the acidic mixture with Et2O, followed by washes with the same solvent and drying under reduced pressure. Crude trifluoroacetate salt peptide is lyophilized and analyzed by analytical HPLC-MS, affording peptide purities over 80%.
Synthesized peptides are further evaluated for its capacity to inhibit DPPH as a reference for their antioxidant potential. […] ID.

[2] = test system: Caucasian hair shafts; test: Ex vivo protection evaluation in Caucasian hair shafts (protein carbonylation); set-up: species or system human; conditions: positive control NAC, concentration not given; stress (PM + UV-A); basal control 100, stress 214
Text: Carbonylated proteins in hair shafts or HFDPC are labeled in situ using a fluorescent probe functionalized to specifically bind carbonyl groups in proteins [Baraibar, M A, et al., “Proteomic quantification and identification of carbonylated proteins upon oxidative stress and during cellular aging” J. Proteomics (2013) 30; 92:63-70]. Specific fluorescent signals (relative fluorescent units) per experimental group (n=6) are collected and analyzed with ImageJ™ software. A relative value (%) of Carbonylation Level per experimental group is obtained with respect to basal control.
hair shafts (donor; light brown) are treated with hydrolysate of Example 3 at 1% (v/v) (active ingredient solubilized in ultra-pure water, leave on (no washing steps)) for 30 minutes with gently movement at room temperature. After this time, hair shafts are dried at room temperature and are stressed with Particle Matters at 150 μg/cm^2 (from European Reference Material; Ref. CZ100) followed by UV-A irradiation (LED source, emission peak at 365 nm, 84 J/cm^2) for 6 h.
After stress exposure Proteins Carbonylation is determined as described in Example 5.

[3] = DPPH assay of antioxidant activity in combination with preservatives, initial and after 3 months storage; type: biochemical; conditions: 0.5% (w/w) Sodium Benzoate alone
Description: as §1
The inhibition percentage is calculated from the following formula: […]
Suitable preservative [1% (w/w) Dermosoft™ 700B (INCI: Levulinic Acid (and) Sodium Levulinate (and) Glycerin (and) Aqua), 4% (w/w) Leucidal™ SF Max from Active Micro Technologies (AMT) (INCI: Lactobacillus Ferment) or 4% (w/w) Leucidal™ Liquid (INCI: Leuconostoc/Radish Root Ferment Filtrate)] is added onto deionized water under continuous stirring. Purified hydrolysate according to Example 3 is added on top of this solution to obtain a concentration of 44-88% (v/v), depending on sample dry weight. […] Samples are maintained for 3 months at 40° C. or at room temperature and antioxidant activity determined by DPPH assay.

Molecule	DPPH inhibition (%) [1] [%]	Ability to inhibit DPPH / antioxidant potential (in words) [1]	Carbonylation level % (MEAN ± SEM) [2] [%]	% DPPH INHIBITION, t = 0 [3] [%]
GINAENNQRN [SEQ ID No. 4]	96.3	most antioxidant peptides	–	–
CC(=O)N[C@@H](CS)C(=O)O [NAC, N-acetyl-cysteine]	–	–	166.8 ± 5.41	–
O=C(O)c1ccccc1 [Sodium Benzoate]	–	–	–	0
VDAQPEEQQR [SEQ ID No. 3]	100	most antioxidant peptides	–	–
EYTGDAAGR [SEQ ID No. 5]	83.9	most antioxidant peptides	–	–
LPQQEQGHDR [SEQ ID No. 2]	77.5	most antioxidant peptides	–	–
VAEQEQEQAKRQ [SEQ ID No. 1]	78.7	most antioxidant peptides	–	–
